Measured values from PubChem BioAssay (NCI).
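Briefly, cells in 96-well plates were exposed to five compound concentrations for 48 h, and endpoints were estimated by linear interpolation. GI50: concentration for 50% inhibition of growth. TGI is the concentration that stops growth completely.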

Assays:
Test in all cases: NCI-60 cell line screen, 48 h
786-0 renal = system: 786-0 renal
A498 renal = system: A498 renal
A549 NSCLC = system: A549 NSCLC
ACHN renal = system: ACHN renal
BT-549 breast = system: BT-549 breast
CAKI-1 renal = system: CAKI-1 renal
CCRF-CEM leukemia = system: CCRF-CEM leukemia
COLO 205 colon = system: COLO 205 colon
DU-145 prostate = system: DU-145 prostate
EKVX NSCLC = system: EKVX NSCLC
HCC-2998 colon = system: HCC-2998 colon
HCT-116 colon = system: HCT-116 colon
HCT-15 colon = system: HCT-15 colon
HL-60(TB) leukemia = system: HL-60(TB) leukemia
HOP-62 NSCLC = system: HOP-62 NSCLC
HOP-92 NSCLC = system: HOP-92 NSCLC
HS 578T breast = system: HS 578T breast
HT29 colon = system: HT29 colon
IGROV1 ovarian = system: IGROV1 ovarian
K-562 leukemia = system: K-562 leukemia
KM12 colon = system: KM12 colon
LOX IMVI melanoma = system: LOX IMVI melanoma
M14 melanoma = system: M14 melanoma
MALME-3M melanoma = system: MALME-3M melanoma
MCF7 breast = system: MCF7 breast
MDA-MB-231 breast = system: MDA-MB-231 breast
MDA-MB-435 = system: MDA-MB-435
MOLT-4 leukemia = system: MOLT-4 leukemia
NCI-H226 lung = system: NCI-H226 lung
NCI-H23 lung = system: NCI-H23 lung
NCI-H460 lung = system: NCI-H460 lung
NCI-H522 lung = system: NCI-H522 lung
NCI/ADR-RES ovarian = system: NCI/ADR-RES ovarian
OVCAR-3 ovarian = system: OVCAR-3 ovarian
OVCAR-4 ovarian = system: OVCAR-4 ovarian
OVCAR-5 ovarian = system: OVCAR-5 ovarian
OVCAR-8 ovarian = system: OVCAR-8 ovarian
PC-3 prostate = system: PC-3 prostate
RPMI-8226 leukemia = system: RPMI-8226 leukemia
RXF 393 renal = system: RXF 393 renal
SF-268 CNS = system: SF-268 CNS
SF-295 CNS = system: SF-295 CNS
SF-539 CNS = system: SF-539 CNS
SK-MEL-2 melanoma = system: SK-MEL-2 melanoma
SK-MEL-28 melanoma = system: SK-MEL-28 melanoma
SK-MEL-5 melanoma = system: SK-MEL-5 melanoma
SK-OV-3 ovarian = system: SK-OV-3 ovarian
SN12C renal = system: SN12C renal
SNB-19 CNS = system: SNB-19 CNS
SNB-75 CNS = system: SNB-75 CNS
SR leukemia = system: SR leukemia
SW-620 colon = system: SW-620 colon
T-47D breast = system: T-47D breast
TK-10 renal = system: TK-10 renal
U251 CNS = system: U251 CNS
UACC-257 melanoma = system: UACC-257 melanoma
UACC-62 melanoma = system: UACC-62 melanoma
UO-31 renal = system: UO-31 renal

Question: Which results are given for `CCc1c(C#N)c(SC(C(N)=O)c2ccccc2)nc(N2CCC(N)CC2)c1C#N` (stereo unspecified)?
Answer: GI50 (786-0 renal): 14.8 µM; TGI (786-0 renal): 28.3 µM; GI50 (A498 renal): 15.4 µM; TGI (A498 renal): 30.4 µM; GI50 (A549 NSCLC): 18.4 µM; TGI (A549 NSCLC): 44.2 µM; GI50 (ACHN renal): 18.1 µM; TGI (ACHN renal): 38.8 µM; GI50 (BT-549 breast): 13.6 µM; TGI (BT-549 breast): 27.3 µM; GI50 (CAKI-1 renal): 14.7 µM; TGI (CAKI-1 renal): 28.6 µM; GI50 (CCRF-CEM leukemia): 15.2 µM; TGI (CCRF-CEM leukemia): 36.8 µM; GI50 (COLO 205 colon): 14.2 µM; TGI (COLO 205 colon): 27.8 µM; GI50 (DU-145 prostate): 16.9 µM; TGI (DU-145 prostate): 31.1 µM; GI50 (EKVX NSCLC): 15.5 µM; TGI (EKVX NSCLC): 36.9 µM; GI50 (HCC-2998 colon): 14.1 µM; TGI (HCC-2998 colon): 27.1 µM; GI50 (HCT-116 colon): 13.5 µM; TGI (HCT-116 colon): 27.4 µM; GI50 (HCT-15 colon): 53.5 µM; TGI (HCT-15 colon): > 100 µM; GI50 (HL-60(TB) leukemia): 10.2 µM; TGI (HL-60(TB) leukemia): 25.9 µM; GI50 (HOP-62 NSCLC): 15.9 µM; TGI (HOP-62 NSCLC): 30.6 µM; GI50 (HOP-92 NSCLC): 4.56 µM; TGI (HOP-92 NSCLC): 19.2 µM; GI50 (HS 578T breast): 14.1 µM; TGI (HS 578T breast): 41.1 µM; GI50 (HT29 colon): 14.3 µM; TGI (HT29 colon): 30.7 µM; GI50 (IGROV1 ovarian): 14 µM; TGI (IGROV1 ovarian): 27.9 µM; GI50 (K-562 leukemia): 12.4 µM; TGI (K-562 leukemia): 28.6 µM; GI50 (KM12 colon): 15.9 µM; TGI (KM12 colon): 31.4 µM; GI50 (LOX IMVI melanoma): 14.3 µM; TGI (LOX IMVI melanoma): 27.4 µM; GI50 (M14 melanoma): 16.2 µM; TGI (M14 melanoma): 30.6 µM; GI50 (MALME-3M melanoma): 14.6 µM; TGI (MALME-3M melanoma): 28.1 µM; GI50 (MCF7 breast): 13 µM; TGI (MCF7 breast): 26.8 µM; GI50 (MDA-MB-231 breast): 14.7 µM; TGI (MDA-MB-231 breast): 28 µM; GI50 (MDA-MB-435): 15.4 µM; TGI (MDA-MB-435): 29.6 µM; GI50 (MOLT-4 leukemia): 11.5 µM; TGI (MOLT-4 leukemia): 31.2 µM; GI50 (NCI-H226 lung): 13 µM; TGI (NCI-H226 lung): 27.7 µM; GI50 (NCI-H23 lung): 16.4 µM; TGI (NCI-H23 lung): 31 µM; GI50 (NCI-H460 lung): 16.1 µM; TGI (NCI-H460 lung): 30.7 µM; GI50 (NCI-H522 lung): 12.9 µM; TGI (NCI-H522 lung): 27.1 µM; GI50 (NCI/ADR-RES ovarian): > 100 µM; TGI (NCI/ADR-RES ovarian): > 100 µM; GI50 (OVCAR-3 ovarian): 14.5 µM; TGI (OVCAR-3 ovarian): 28.2 µM; GI50 (OVCAR-4 ovarian): 15.5 µM; TGI (OVCAR-4 ovarian): 34.3 µM; GI50 (OVCAR-5 ovarian): 15.5 µM; TGI (OVCAR-5 ovarian): 31.7 µM; GI50 (OVCAR-8 ovarian): 15.9 µM; TGI (OVCAR-8 ovarian): 33.7 µM; GI50 (PC-3 prostate): 12.9 µM; TGI (PC-3 prostate): 26.5 µM; GI50 (RPMI-8226 leukemia): 13.7 µM; TGI (RPMI-8226 leukemia): 34.4 µM; GI50 (RXF 393 renal): 10.4 µM; TGI (RXF 393 renal): 22.7 µM; GI50 (SF-268 CNS): 14.2 µM; TGI (SF-268 CNS): 29.2 µM; GI50 (SF-295 CNS): 14.8 µM; TGI (SF-295 CNS): 28.7 µM; GI50 (SF-539 CNS): 15.3 µM; TGI (SF-539 CNS): 28.9 µM; GI50 (SK-MEL-2 melanoma): 14.7 µM; TGI (SK-MEL-2 melanoma): 28.5 µM; GI50 (SK-MEL-28 melanoma): 14.7 µM; TGI (SK-MEL-28 melanoma): 27.9 µM; GI50 (SK-MEL-5 melanoma): 15.1 µM; TGI (SK-MEL-5 melanoma): 28.3 µM; GI50 (SK-OV-3 ovarian): 15.7 µM; TGI (SK-OV-3 ovarian): 29.8 µM; GI50 (SN12C renal): 13.1 µM; TGI (SN12C renal): 26 µM; GI50 (SNB-19 CNS): 14.9 µM; TGI (SNB-19 CNS): 28.5 µM; GI50 (SNB-75 CNS): 11.2 µM; TGI (SNB-75 CNS): 24.6 µM; GI50 (SR leukemia): 16.2 µM; TGI (SR leukemia): 38.1 µM; GI50 (SW-620 colon): 15.5 µM; TGI (SW-620 colon): 29.6 µM; GI50 (T-47D breast): 14.6 µM; TGI (T-47D breast): 31.8 µM; GI50 (TK-10 renal): 15.3 µM; TGI (TK-10 renal): 29.9 µM; GI50 (U251 CNS): 15.7 µM; TGI (U251 CNS): 30.5 µM; GI50 (UACC-257 melanoma): 14.3 µM; TGI (UACC-257 melanoma): 29.3 µM; GI50 (UACC-62 melanoma): 15 µM; TGI (UACC-62 melanoma): 28.4 µM; GI50 (UO-31 renal): > 100 µM; TGI (UO-31 renal): > 100 µM
